pIC50: −log10 of the molar value.
Tests used:
human SGLT2 = target: T1, human SGLT2 (Homo sapiens, UniProt P31639); test: Assay for inhibitory effects on human SGLT2 activity (uptake of methyl-α-D-glucopyranoside in CS2-5E cells); assay type: cell-based; conditions: inhibition of 14C α-MG uptake, CHO-K1 derived CS2-5E cells stably expressing human SGLT2, 1 mM α-MG, 37° C., 1 hour
T1 construct: expressed in transfected cells
T1 sequence (P31639 1-672): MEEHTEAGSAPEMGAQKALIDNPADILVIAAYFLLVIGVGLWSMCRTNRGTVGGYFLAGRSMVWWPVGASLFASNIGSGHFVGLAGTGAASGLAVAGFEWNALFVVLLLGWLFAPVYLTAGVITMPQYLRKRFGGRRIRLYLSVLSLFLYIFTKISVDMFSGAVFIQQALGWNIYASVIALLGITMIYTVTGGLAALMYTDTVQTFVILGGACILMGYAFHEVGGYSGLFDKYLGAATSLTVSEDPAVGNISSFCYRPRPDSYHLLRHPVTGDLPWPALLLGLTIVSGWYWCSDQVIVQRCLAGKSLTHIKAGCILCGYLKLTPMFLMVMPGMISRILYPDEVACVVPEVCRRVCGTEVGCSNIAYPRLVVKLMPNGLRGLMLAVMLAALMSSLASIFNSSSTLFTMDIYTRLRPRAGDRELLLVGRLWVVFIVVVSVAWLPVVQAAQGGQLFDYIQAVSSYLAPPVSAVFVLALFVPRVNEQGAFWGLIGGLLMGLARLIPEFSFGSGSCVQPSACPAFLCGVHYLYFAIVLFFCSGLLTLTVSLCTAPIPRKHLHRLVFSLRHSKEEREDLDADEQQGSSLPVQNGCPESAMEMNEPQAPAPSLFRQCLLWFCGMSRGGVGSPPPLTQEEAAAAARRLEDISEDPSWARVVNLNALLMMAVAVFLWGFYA
Description: Assay for Inhibitory Effects on Human SGLT2 Activity
1) Cloning and Construction of the Vector Expressing Human SGLT2
The cDNA library was prepared for PCR amplification by reverse transcription from total RNA deprived from human kidney (Ori gene) using oligo-dT as a primer. Using this cDNA library as a template, the DNA fragment coding 2 to 2039 bp of human SGLT2 (ACCESSION: M95549, M95299), which was reported by R. G. Wells et al., was amplified by PCR method and inserted into the multi-cloning site of pcDNA3.1(−) (Invitrogen). The DNA sequence inserted was perfectly matched to the previously reported sequence.
2) Establishment of Cell Line Stably Expressing Human SGLT2
The expression vector of human SGLT2 was digested by Sca I into a linear DNA. The linear DNA was transfected into CHO-K1 cells by means of lipofection (Effectene Transfection Reagent: QIAGEN). Neomycin resistant cell lines were selected by culture in the medium containing G418 (1 mg/mL, LIFE TECHNOLOGIES), and then the activity against the uptake of methyl-α-D-glucopyranoside was measured by the method described below. […] CS2-5E cells were cultured in the presence of G418 at 200 μg/mL. […]
CS2-5E cells were seeded into a 96-well culture plate at a density of 3×10^4 cells/well and cultured for 2 days, and were used in the uptake assay. […] Radioactivity was measured by means of micro-scintillation counter TopCount (Packard). […]

human SGLT1 = target: T2, human SGLT1 (Homo sapiens, UniProt P13866); test: Assay for inhibitory effects on human SGLT1 activity (uptake of methyl-α-D-glucopyranoside in CS1-5-11D cells); assay type: cell-based; conditions: inhibition of 14C α-MG uptake, CHO-K1 derived CS1-5-11D cells stably expressing human SGLT1, 1 mM α-MG, 37° C., 1 hour
T2 construct: expressed in transfected cells
T2 sequence (P13866 1-664): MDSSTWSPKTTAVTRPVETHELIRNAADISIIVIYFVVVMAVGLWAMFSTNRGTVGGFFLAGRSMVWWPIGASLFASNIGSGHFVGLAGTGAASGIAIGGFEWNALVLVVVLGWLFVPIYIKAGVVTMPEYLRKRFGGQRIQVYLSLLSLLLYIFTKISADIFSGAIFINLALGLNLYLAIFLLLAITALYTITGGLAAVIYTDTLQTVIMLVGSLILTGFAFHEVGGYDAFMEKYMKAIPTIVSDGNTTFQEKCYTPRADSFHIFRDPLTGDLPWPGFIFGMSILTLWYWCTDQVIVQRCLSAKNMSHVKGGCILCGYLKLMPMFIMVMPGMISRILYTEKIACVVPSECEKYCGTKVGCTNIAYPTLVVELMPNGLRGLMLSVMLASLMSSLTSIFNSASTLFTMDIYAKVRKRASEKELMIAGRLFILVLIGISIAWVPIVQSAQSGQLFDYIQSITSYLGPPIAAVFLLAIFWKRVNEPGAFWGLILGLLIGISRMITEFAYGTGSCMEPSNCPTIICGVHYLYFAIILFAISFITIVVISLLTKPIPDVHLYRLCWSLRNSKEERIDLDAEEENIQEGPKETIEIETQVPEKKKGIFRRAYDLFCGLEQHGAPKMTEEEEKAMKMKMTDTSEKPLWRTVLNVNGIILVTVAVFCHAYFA
Description: Assay for Inhibitory Effects on Human SGLT1 Activity
1) Cloning and Construction of the Vector Expressing Human SGLT1
The cDNA library was prepared for PCR amplification by reverse transcription from total RNA deprived from human small intestine (Ori gene) using oligo-dT as a primer. Using this cDNA library as a template, the DNA fragment coding 1 to 2005 bp of human SGLT1 (ACCESSION: M24847), which was reported by Hediger et al., was amplified by PCR method and inserted into the multi-cloning site of pcDNA3.1(−) (Invitrogen). The DNA sequence inserted was perfectly matched to the previously reported sequence.
2) Establishment of Cell Line Stably Expressing Human SGLT1
The expression vector of human SGLT1 was digested by Sca I into a linear DNA. The linear DNA was transfected into CHO-K1 cells by means of lipofection (Effectene Transfection Reagent: QIAGEN). Neomycin resistant cell lines were selected by culture in the medium containing G418 (1 mg/mL, LIFE TECHNOLOGIES), and then the activity against the uptake of methyl-α-D-glucopyranoside was measured by the method described below. […] CS1-5-11D cells were cultured in the presence of G418 at 200 μg/mL. […]
CS1-5-11D cells were seeded into a 96-well culture plate at a density of 3×10^4 cells/well and cultured for 2 days, and were used in the uptake assay. […] Radioactivity was measured by means of micro-scintillation counter TopCount (Packard). […]

diabetic rats = test: Assay for inhibitory effects on blood glucose level increase in rats (liquid meal tolerance test); assay type: in vivo, Wistar rats; conditions: liquid meal load, mean±S.E.; for Plasma glucose concentration 0.5 h: 0.5 hour after administration; for Plasma glucose concentration 1 h: 1 hour after administration; for Plasma glucose concentration 0 h: pretreatment (0 h)
Description: Assay for Inhibitory Effects on Blood Glucose Level Increase in Rats
1) Preparation of Diabetic Rat Model
Male Wistar rats (Japan Charles River), aged 8 weeks old, were injected nicotinamide (230 mg/kg) intraperitoneally. Fifteen minutes after injection, they were injected streptozotocin (85 mg/kg) intravenously from tail vain under anesthesia with ether. After a week, rats were fasted overnight and then glucose tolerance test (2 g/kg) was done.
2) Liquid Meal Tolerance Test
After overnight fasted, the diabetic rats were orally administered a test compound (0.5, 2 mg/kg), which was dissolved in distilled water, in the drug-treating group, or distilled water alone in a control group. Immediately after the compound administration, 4.5 kcal/body of liquid meal (No. 038, Control diet, assorted with dextrin and maltose; Oriental Yeast Co., Ltd.) was loaded orally. The blood was collected from tail artery immediately before and after administration with the time course, and treated with heparin immediately. The blood was centrifuged, and the plasma was collected to quantify the plasma glucose concentration by glucose oxidase method. The values in the Table are presented as the mean±S.E.

`OCCn1nc(O[C@@H]2O[C@H](CO)[C@@H](O)[C@H](O)[C@H]2O)c2c(CCc3ccccc3)ccnc21` [Example 17, 3-(β-D-Glucopyranosyloxy)-1-(2-hydroxyethyl)-4-(2-phenylethyl)-1H-pyrazolo[3,4-b]pyridine] gave a pIC50 (human SGLT2) of 7.17.
Work on `NC(=O)Cn1nc(O[C@@H]2O[C@H](CO)[C@@H](O)[C@H](O)[C@H]2O)c2c(CCc3ccc(O)cc3)ccnc21` [Example 12, 1-Carbamoylmethyl-3-(β-D-glucopyranosyloxy)-4-[2-(4-hydroxyphenyl)ethyl]-1H-pyrazolo[3,4-b]pyridine] yielded a pIC50 (human SGLT1) of 7.00.
In the case of `OC[C@H]1O[C@@H](Oc2n[nH]c3cccc(CCc4ccccc4)c23)[C@H](O)[C@@H](O)[C@@H]1O` [Example 4, 3-(β-D-Glucopyranosyloxy)-4-(2-phenylethyl)-1H-indazole], the pIC50 (human SGLT2) was 7.05.
`Cc1cc(CCc2cccc3[nH]nc(O[C@@H]4O[C@H](CO)[C@@H](O)[C@H](O)[C@H]4O)c23)ccc1O` [Example 5, 3-(β-D-Glucopyranosyloxy)-4-[2-(4-hydroxy-3-methylphenyl)-ethyl]-1H-indazole] gave a pIC50 (human SGLT1) of 7.92.
With `OCCn1nc(O[C@@H]2O[C@H](CO)[C@@H](O)[C@H](O)[C@H]2O)c2c(CCc3ccc(O)cc3)cccc21` [Example 59, 3-(β-D-Glucopyranosyloxy)-1-(2-hydroxyethyl)-4-[2-(4-hydroxyphenyl)ethyl]-1H-indazole] the “Plasma glucose concentration 0.5 h” value (diabetic rats; 0.5 mg/kg orally) was 173 ± 7 mg/dL, the “Plasma glucose concentration 1 h” value (diabetic rats; 0.5 mg/kg orally) was 186 ± 6 mg/dL and the “Plasma glucose concentration 0 h” value (diabetic rats; 0.5 mg/kg orally) was 109 ± 2 mg/dL. The “Plasma glucose concentration 0.5 h” value (diabetic rats; 2 mg/kg orally) was 141 ± 3 mg/dL, the “Plasma glucose concentration 1 h” value (diabetic rats; 2 mg/kg orally) was 153 ± 4 mg/dL and the “Plasma glucose concentration 0 h” value (diabetic rats; 2 mg/kg orally) was 115 ± 3 mg/dL.
